Experimental data from patent publication US4604239A, “Antibiotics” (Eli Lilly and Company, priority 1985, dated 1986).
Converted amounts (≈) assume the structure as drawn. Like-named read-outs stand apart in the source and are kept apart here.

How the values were obtained:
Staphylococcus aureus = experiment: agar-dilution MIC; assay type: cell-based
Hemophilus influenzae = experiment: agar-dilution MIC; assay type: cell-based
[1] = tested on: Staphylococcus epidermidis; experiment: agar-dilution MIC; assay type: cell-based
Text: (§1) The agar-dilution procedure described by the International Collaborative study (ICS) group was used to determine the minimum inhibitory concentrations (MIC's).

Streptococcus pneumoniae = experiment: agar-dilution MIC; assay type: cell-based
Text: as §1

Streptococcus pyogenes = experiment: agar-dilution MIC; assay type: cell-based; settings: Streptococcus pyogenes C203; Table 17
Text: as §1

[2] = tested on: Streptococcus sp. (Group D); experiment: agar-dilution MIC; assay type: cell-based
Text: as §1

Bacteroides corrodens [3] = experiment: agar-dilution MIC; assay type: cell-based; settings: B. corrodens 1874; 24-hour; Table 12
Text: (§2) The A41030 antibiotics, factors A, B, and C, are active against a genus of anaerobic bacteria identified as Bacteroides sp., the 24-hour MIC values being determined by the agar-dilution method, and are set forth in Table 12, which follows.

Bacteroides vulgatis [4] = experiment: agar-dilution MIC; assay type: cell-based; settings: B. vulgatis 1563; 24-hour; Table 12
Text: as §2

[5] = tested on: Bacteroides thetaiotaomicron; assay type: cell-based
Text: as §1

Clostridium difficile = assay type: cell-based
Clostridium perfringens = assay type: cell-based; settings: Clostridium perfringens 81; Table 14
Clostridium septicum = experiment: agar-dilution MIC; assay type: cell-based; settings: Clostridium septicum 1128; Table 14
[6] = tested on: Peptococcus asaccharolyticus; experiment: agar-dilution MIC; assay type: cell-based
Experimental: (§3) The MIC values were determined by the agar-dilution method, and are recorded in Table 15, which follows.

Peptococcus constellatus = experiment: agar-dilution MIC; assay type: cell-based; settings: Pc. constellatus 1468; Table 15
Experimental: as §3

Peptococcus magnus = experiment: agar-dilution MIC; assay type: cell-based; settings: Pc. magnus 1477; Table 15
Experimental: as §3

Peptococcus prevoti [7] = experiment: agar-dilution MIC; assay type: cell-based; settings: Table 15
Experimental: as §3

[8] = tested on: Peptostreptococcus anaerobius; experiment: agar-dilution MIC; assay type: cell-based
[9] = tested on: Peptostreptococcus intermedius; experiment: agar-dilution MIC; assay type: cell-based
[10] = tested on: Bacteroides melaninogenicus; experiment: agar-dilution MIC; assay type: cell-based; settings: Bacteroides melaninogenicus 2736; Table 14
[11] = tested on: Fusobacterium necrophorum; experiment: agar-dilution MIC; assay type: cell-based; settings: Fusobacterium necrophorum 6054A; Table 14
Staph. aureus = experiment: experimental bacterial infection in mice; assay type: in vivo; settings: two doses subcutaneously
Experimental: All of the A41030 factors tested have shown in vivo antimicrobial activity against experimental bacterial infections. When two doses of test compound were administered subcutaneously to mice in illustrative infections, the activity observed is measured as an ED50 value [effective dose in mg./kg. to protect fifty percent of the test animals: See Warren Wick, et al., J. Bacteriol. 81, 233-235 (1961)].

solubility = assay type: physicochemical
Bacteroides corrodens [12] = experiment: agar-dilution MIC; assay type: cell-based; settings: Bacteroides corrodens 1874; Table 14
Bacteroides vulgatis [13] = experiment: agar-dilution MIC; assay type: cell-based; settings: Bacteroides vulgatis 1211; Table 14
Peptococcus prevoti [14] = experiment: agar-dilution MIC; assay type: cell-based

With N[C@H]1C(=O)N[C@@H]2Cc3ccc(c(Cl)c3)Oc3cc4cc(c3O)Oc3ccc(cc3Cl)[C@@H](O)[C@@H]3NC(=O)C(NC(=O)[C@@H]4NC(=O)[C@@H](NC2=O)c2cc(O)cc(c2)Oc2cc1ccc2O)c1ccc(O)c(c1)-c1c(O)cc(O)cc1[C@@H](C(=O)O)NC3=O [A41030 factor B] the MIC (Staphylococcus aureus; Staphylococcus aureus 3055, end point after 24 hours, Table 18) was 0.06 µg/mL (≈ 0.05 µM), the MIC (Staphylococcus aureus; Staphylococcus aureus V138, end point after 24 hours, Table 18) was 0.06 µg/mL (≈ 0.05 µM) and the MIC (Staphylococcus aureus; in µg/mL) was 0.25. For the same compound, the MIC (Hemophilus influenzae; Haemophilus influenzae 76, end point after 24 hours, Table 18) was 4 µg/mL (≈ 3.34 µM), the MIC (Hemophilus influenzae; Haemophilus influenzae 251, Table 17) was 2 µg/mL (≈ 1.67 µM) and the MIC (Hemophilus influenzae; Haemophilus influenzae 312, end point after 24 hours, Table 18) was 4 µg/mL (≈ 3.34 µM). The MIC (Hemophilus influenzae; Haemophilus influenzae 4842, end point after 24 hours, Table 18) was 4 µg/mL (≈ 3.34 µM), the MIC (Hemophilus influenzae; Haemophilus influenzae 16836, end point after 24 hours, Table 18) was 4 µg/mL (≈ 3.34 µM) and the MIC (Hemophilus influenzae; Haemophilus influenzae Bond, end point after 24 hours, Table 18) was 4 µg/mL (≈ 3.34 µM). The MIC (Hemophilus influenzae; Haemophilus influenzae Brun, Table 17) was 8 µg/mL (≈ 6.67 µM), the MIC (Hemophilus influenzae; Haemophilus influenzae C.L., end point after 24 hours, Table 18) was 8 µg/mL (≈ 6.67 µM) and the MIC (Hemophilus influenzae; Haemophilus influenzae Mx366, end point after 24 hours, Table 18) was 4 µg/mL (≈ 3.34 µM). It also gave an MIC (Hemophilus influenzae; Haemophilus influenzae Mx371, end point after 24 hours, Table 18) of 4 µg/mL (≈ 3.34 µM), an MIC ([1]; Staphylococcus epidermidis 219, end point after 24 hours, Table 18) of 0.03 µg/mL (≈ 0.025 µM) and an MIC ([1]; Staphylococcus epidermidis 269, end point after 24 hours, Table 18) of 0.03 µg/mL (≈ 0.025 µM). The MIC ([1]; Staphylococcus epidermidis 270, end point after 24 hours, Table 18) was 0.06 µg/mL (≈ 0.05 µM), the MIC ([1]; Staphylococcus epidermidis 285, end point after 24 hours, Table 18) was 0.03 µg/mL (≈ 0.025 µM) and the MIC ([1]; Staphylococcus epidermidis EPI2, Table 17) was 0.5 µg/mL (≈ 0.417 µM). For the same compound, the MIC (Streptococcus pneumoniae; Streptococcus pneumoniae B1-438, end point after 24 hours, Table 18) was 0.5 µg/mL (≈ 0.417 µM), the MIC (Streptococcus pneumoniae; Streptococcus pneumoniae Park I, Table 17) was 0.5 µg/mL (≈ 0.417 µM) and the MIC (Streptococcus pyogenes) was 0.25 µg/mL (≈ 0.209 µM). The MIC ([2]; Streptococcus sp. Group D 2041, end point after 24 hours, Table 18) was 0.5 µg/mL (≈ 0.417 µM), the MIC ([2]; Streptococcus sp. Group D 2058, end point after 24 hours, Table 18) was 0.5 µg/mL (≈ 0.417 µM) and the MIC ([2]; Streptococcus sp. Group D 8043, end point after 24 hours, Table 18) was 0.25 µg/mL (≈ 0.209 µM). It also gave an MIC ([2]; Streptococcus sp. Group D 9901, end point after 24 hours, Table 18) of 1 µg/mL (≈ 0.834 µM), an MIC ([2]; Streptococcus sp. Group D 9960, Table 17) of 1 µg/mL (≈ 0.834 µM) and an MIC ([2]; Streptococcus sp. Group D 9960, end point after 24 hours, Table 18) of 0.5 µg/mL (≈ 0.417 µM). For the same compound, the MIC ([2]; Streptococcus sp. Group D 12253F, end point after 24 hours, Table 18) was 0.5 µg/mL (≈ 0.417 µM), the MIC ([2]; Streptococcus sp. Group D Mx161, end point after 24 hours, Table 18) was 0.25 µg/mL (≈ 0.209 µM) and the MIC ([2]; Streptococcus sp. Group D X66, Table 17) was 1 µg/mL (≈ 0.834 µM). It also gave an MIC ([2]; Streptococcus sp. Group D X66, end point after 24 hours, Table 18) of 0.25 µg/mL (≈ 0.209 µM), an MIC (Bacteroides corrodens [3]) of 32 µg/mL (≈ 26.7 µM) and an MIC (Bacteroides vulgatis [4]) of 32 µg/mL (≈ 26.7 µM). For the same compound, the MIC ([5]; B. thetaiotaomicron 1438, 24-hour, Table 12) was 32 µg/mL (≈ 26.7 µM), the MIC ([5]; Bacteroides thetaiotaomicron 1438, Table 14) was 32 µg/mL (≈ 26.7 µM) and the MIC (Clostridium difficile; Clostridium difficile 78, Table 16) was 0.5 µg/mL (≈ 0.417 µM). For the same compound, the MIC (Clostridium difficile; Clostridium difficile 107B, Table 16) was 0.5 µg/mL (≈ 0.417 µM), the MIC (Clostridium difficile; Clostridium difficile 111F, Table 16) was 1.0 µg/mL (≈ 0.834 µM) and the MIC (Clostridium difficile; Clostridium difficile 1153, Table 16) was 1.0 µg/mL (≈ 0.834 µM). For the same compound, the MIC (Clostridium difficile; Clostridium difficile 2634, Table 16) was 1.0 µg/mL (≈ 0.834 µM), the MIC (Clostridium difficile; Clostridium difficile 2994, Table 14) was 32 µg/mL (≈ 26.7 µM) and the MIC (Clostridium difficile; Clostridium difficile 3424-5B, Table 16) was 1.0 µg/mL (≈ 0.834 µM). For the same compound, the MIC (Clostridium difficile; Clostridium difficile 3816, Table 16) was 1.0 µg/mL (≈ 0.834 µM), the MIC (Clostridium difficile; Clostridium difficile 3950D, Table 16) was 1.0 µg/mL (≈ 0.834 µM) and the MIC (Clostridium difficile; Clostridium difficile 6890, Table 16) was 1.0 µg/mL (≈ 0.834 µM). For the same compound, the MIC (Clostridium difficile; Clostridium difficile 8484, Table 16) was 1.0 µg/mL (≈ 0.834 µM), the MIC (Clostridium difficile; Clostridium difficile A-194, Table 16) was 1.0 µg/mL (≈ 0.834 µM) and the MIC (Clostridium difficile; Clostridium difficile A-195, Table 16) was 1.0 µg/mL (≈ 0.834 µM). It also gave an MIC (Clostridium difficile; Clostridium difficile A-196, Table 16) of 1.0 µg/mL (≈ 0.834 µM), an MIC (Clostridium difficile; Clostridium difficile A-279, Table 16) of 1.0 µg/mL (≈ 0.834 µM) and an MIC (Clostridium difficile; Clostridium difficile A-280, Table 16) of 0.5 µg/mL (≈ 0.417 µM). For the same compound, the MIC (Clostridium difficile; Clostridium difficile A-281, Table 16) was 1.0 µg/mL (≈ 0.834 µM), the MIC (Clostridium difficile; Clostridium difficile WAL-2112, Table 16) was 1.0 µg/mL (≈ 0.834 µM) and the MIC (Clostridium difficile; Clostridium difficile WAL-3657, Table 16) was 1.0 µg/mL (≈ 0.834 µM). For the same compound, the MIC (Clostridium difficile; Clostridium difficile WAL-4268, Table 16) was 0.5 µg/mL (≈ 0.417 µM), the MIC (Clostridium perfringens) was 0.5 µg/mL (≈ 0.417 µM) and the MIC (Clostridium septicum) was 4 µg/mL (≈ 3.34 µM). For the same compound, the MIC ([6]; Pc. asaccharolyticus 1344, Table 15) was 0.5 µg/mL (≈ 0.417 µM), the MIC ([6]; Peptococcus asaccharolyticus 1302, Table 14) was ≤ 0.25 µg/mL and the MIC (Peptococcus constellatus) was 0.5 µg/mL (≈ 0.417 µM). For the same compound, the MIC (Peptococcus magnus) was 0.25 µg/mL (≈ 0.209 µM), the MIC (Peptococcus prevoti [7]; Pc. prevoti 1293) was 0.25 µg/mL (≈ 0.209 µM) and the MIC (Peptococcus prevoti [7]; Pc. prevoti 1407) was 0.5 µg/mL (≈ 0.417 µM). For the same compound, the MIC ([8]; Peptostreptococcus anaerobius 1428, Table 14) was ≤ 0.25 µg/mL, the MIC ([8]; Ps. anaerobius 8, Table 15) was 0.25 µg/mL (≈ 0.209 µM) and the MIC ([8]; Ps. anaerobius 52, Table 15) was 0.5 µg/mL (≈ 0.417 µM). The MIC ([8]; Ps. anaerobius 59, Table 15) was 0.25 µg/mL (≈ 0.209 µM), the MIC ([8]; Ps. anaerobius 1418, Table 15) was 0.06 µg/mL (≈ 0.05 µM) and the MIC ([8]; Ps. anaerobius 1428, Table 15) was 0.25 µg/mL (≈ 0.209 µM). The MIC ([8]; Ps. anaerobius 1451, Table 15) was 0.25 µg/mL (≈ 0.209 µM), the MIC ([9]; Peptostreptococcus intermedius 1264, Table 14) was 0.5 µg/mL (≈ 0.417 µM) and the MIC ([9]; Ps. intermedius 1264, Table 15) was ≤ 0.03 µg/mL. The MIC ([9]; Ps. intermedius 1524, Table 15) was 0.25 µg/mL (≈ 0.209 µM), the MIC ([9]; Ps. intermedius 1624, Table 15) was 0.5 µg/mL (≈ 0.417 µM) and the MIC [10] was 4 µg/mL (≈ 3.34 µM). The MIC [11] was 8 µg/mL (≈ 6.67 µM), the ED50 (Staph. aureus) was < 0.43 mg/kg and the “solubility (solvents)” value (solubility) was “soluble in the same solvents as factor A”. It also gave an MIC (Bacteroides corrodens [12]) of 64 µg/mL (≈ 53.4 µM), an MIC (Bacteroides vulgatis [13]) of 32 µg/mL (≈ 26.7 µM) and an MIC (Peptococcus prevoti [14]; Pc. prevoti 1281, Table 15) of 0.5 µg/mL (≈ 0.417 µM). For the same compound, the MIC (Peptococcus prevoti [14]; Peptococcus prevoti 1281, Table 14) was ≤ 0.25 µg/mL.
